# Measurements: patent US10538495B2, “Modulators of indoleamine 2,3-dioxygenase” (GLAXOSMITHKLINE INTELLECTUAL PROPERTY DEVELOPMENT LIMITED, priority 2016, dated 2020)
# Target: indoleamine 2,3-dioxygenase (IDO1) (Homo sapiens, UniProt P14902)
# Assay: HeLa IDOi assay (kynurenine by mass spectrometry)
# Format: cell-based
# Parameters: human epithelial HeLa cells (CCL-2; host or cells: HeLa cells stimulated with human IFN-γ
# Details: IFN-γ stimulated HeLa cells, 2 days, kynurenine detected by mass spectrometry; read-out: HeLa pIC50 (converted)
# Description: Brief descriptions of the cellular assays are provided following the table.
# Compounds of the present invention were tested via high-throughput cellular assays utilizing detection of kynurenine via mass spectrometry and cytotoxicity as end-points. For the mass spectrometry and cytotoxicity assays, human epithelial HeLa cells (CCL-2; ATCC®, Manassas, Va.) were stimulated with human interferon-γ (IFN-γ) (Sigma-Aldrich Corporation, St. Louis, Mo.) to induce the expression of indoleamine 2,3-dioxygenase (IDO1). Compounds with IDO1 inhibitory properties decreased the amount of kynurenine produced by the cells via the tryptophan catabolic pathway. Cellular toxicity due to the effect of compound treatment was measured using CellTiter-Glo® reagent (CTG) (Promega Corporation, Madison, Wis.), which is based on luminescent detection of ATP, an indicator of metabolically active cells.
# In preparation for the assays, test compounds were serially diluted 3-fold in DMSO from a typical top concentration of 5 mM and plated at 0.5 μL in 384-well, polystyrene, clear bottom, tissue culture treated plates with lids (Greiner Bio-One, Kremsmünster, Austria) to generate 11-point dose response curves. Low control wells (0% kynurenine or 100% cytotoxicity) contained either 0.5 μL of DMSO in the presence of unstimulated (−IFN-γ) HeLa cells for the mass spectrometry assay or 0.5 μL of DMSO in the absence of cells for the cytotoxicity assay, and high control wells (100% kynurenine or 0% cytotoxicity) contained 0.5 μL of DMSO in the presence of stimulated (+IFN-γ) HeLa cells for both the mass spectrometry and cytotoxicity assays.
# Frozen stocks of HeLa cells were washed and recovered in DMEM high glucose medium with HEPES (Thermo Fisher Scientific, Inc., Waltham, Mass.) supplemented with 10% v/v certified fetal bovine serum (FBS) (Thermo Fisher Scientific, Inc., Waltham, Mass.), and 1× penicillin-streptomycin antibiotic solution (Thermo Fisher Scientific, Inc., Waltham, Mass.). The cells were diluted to 100,000 cells/mL in the supplemented DMEM medium. 50 μL of either the cell suspension, for the mass spectrometry assay, or medium alone, for the cytotoxicity assay, were added to the low control wells, on the previously prepared 384-well compound plates, resulting in 5,000 cells/well or 0 cells/well respectively. IFN-γ was added to the remaining cell suspension at a final concentration of 10 nM, and 50 μL of the stimulated cells were added to all remaining wells on the 384-well compound plates. The plates, with lids, were then placed in a 37° C., 5% CO2 humidified incubator for 2 days.
# Following incubation, the 384-well plates were removed from the incubator and allowed to equilibrate to room temperature for 30 minutes. For the cytotoxicity assay, CellTiter-Glo® was prepared according to the manufacturer's instructions, and 10 μL were added to each plate well. After a twenty minute incubation at room temperature, luminescence was read on an EnVision® Multilabel Reader (PerkinElmer Inc., Waltham, Mass.). For the mass spectrometry assay, 10 μL of supernatant from each well of the compound-treated plates were added to 40 μL of acetonitrile, containing 10 μM of an internal standard for normalization, in 384-well, polypropylene, V-bottom plates (Greiner Bio-One, Kremsmünster, Austria) to extract the organic analytes. Following centrifugation at 2000 rpm for 10 minutes, 10 μL from each well of the acetonitrile extraction plates were added to 90 μL of sterile, distilled H2O in 384-well, polypropylene, V-bottom plates for analysis of kynurenine and the internal standard on the RapidFire 300 (Agilent Technologies, Santa Clara, Calif.) and 4000 QTRAP MS (SCIEX, Framingham, Mass.). MS data were integrated using Agilent Technologies' RapidFire Integrator software, and data were normalized for analysis as a ratio of kynurenine to the internal standard. […]
# Chain of indoleamine 2,3-dioxygenase (IDO1) (P14902 whole entry): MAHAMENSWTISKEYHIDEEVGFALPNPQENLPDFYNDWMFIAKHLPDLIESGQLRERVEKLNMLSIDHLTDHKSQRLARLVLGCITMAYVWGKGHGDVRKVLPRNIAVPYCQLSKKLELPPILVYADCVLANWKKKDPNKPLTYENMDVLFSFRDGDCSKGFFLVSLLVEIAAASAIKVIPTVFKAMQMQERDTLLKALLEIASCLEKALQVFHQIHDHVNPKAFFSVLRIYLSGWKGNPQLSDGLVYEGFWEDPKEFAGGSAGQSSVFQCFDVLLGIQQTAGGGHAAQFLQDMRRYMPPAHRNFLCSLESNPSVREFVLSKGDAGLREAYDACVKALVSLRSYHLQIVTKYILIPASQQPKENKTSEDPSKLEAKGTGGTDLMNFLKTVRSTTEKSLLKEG
row,IC50 [µM],SMILES
1,> 10,"CC(C)(C)Sc1ccc(-c2ccccc2-c2nn[nH]n2)cc1NC(=O)Cc1cnccn1 [Example 5, N-(4-(tert-butylthio)-2′-(2H-tetrazol-5-yl)-[1,1′-biphenyl]-3-yl)-2-(pyrazin-2-yl)acetamide]"
2,6.31,"CC(C)(C)Sc1ccc(-c2ccccc2-c2nn[nH]n2)cc1NC(=O)Cc1ccncc1 [Example 6, N-(4-(tert-butylthio)-2′-(2H-tetrazol-5-yl)-[1,1′-biphenyl]-3-yl)-2-(pyridin-4-yl)acetamide]"
3,5.01,"CC(C)(C)Sc1ccc(-c2ccccc2-c2nn[nH]n2)cc1NC(=O)Cc1ccc(C#N)cc1 [Example 7, N-(4-(tert-butylthio)-2′-(2H-tetrazol-5-yl)-[1,1′-biphenyl]-3-yl)-2-(4-cyanophenyl)acetamide]"
4,6.31,"Cc1cc(CC(=O)Nc2cc(-c3ccccc3-c3nn[nH]n3)ccc2SC(C)(C)C)on1 [Example 8, N-(4-(tert-butylthio)-2′-(2H-tetrazol-5-yl)-[1,1′-biphenyl]-3-yl)-2-(3-methylisoxazol-5-yl)acetamide]"
5,> 10,"CC(C)(C)Sc1ccc(-c2ccccc2-c2nn[nH]n2)cc1NC(=O)Cc1cncnc1 [Example 9, N-(4-(tert-butylthio)-2′-(2H-tetrazol-5-yl)-[1,1′-biphenyl]-3-yl)-2-(pyrimidin-5-yl)acetamide]"
6,1,"COCCCSc1ccc(-c2ccccc2-c2nn[nH]n2)cc1NC(=O)Cc1ccc(C)cc1 [Example 11, N-(4-((3-methoxypropyl)thio)-2′-(2H-tetrazol-5-yl)-[1,1′-biphenyl]-3-yl)-2-(p-tolyl)acetamide]"
7,5.01,"Cc1ccc(CC(=O)Nc2cc(-c3ccccc3-c3nn[nH]n3)ccc2SC2CCOCC2)cc1 [Example 12, N-(4-((tetrahydro-2H-pyran-4-yl)thio)-2′-(2H-tetrazol-5-yl)-[1,1′-biphenyl]-3-yl)-2-(p-tolyl)acetamide]"
8,2.51,"CC(C)(C)Sc1ccc(-c2ccccc2-c2nn[nH]n2)cc1NC(=O)CC1CC1 [Example 17, N-(4-(tert-butylthio)-2′-(2H-tetrazol-5-yl)-[1,1′-biphenyl]-3-yl)-2-cyclopropylacetamide]"
9,3.98,"CC(C)(C)Sc1ccc(-c2ccccc2-c2nn[nH]n2)cc1NC(=O)CC1CCCCC1 [Example 18, N-(4-(tert-butylthio)-2′-(2H-tetrazol-5-yl)-[1,1′-biphenyl]-3-yl)-2-cyclohexylacetamide]"
10,0.02,"Cc1ccc(CC(=O)Nc2cc(-c3ccccc3-c3nn[nH]n3)ccc2SC(C)(C)C)cc1F [Example 21, N-(4-(tert-butylthio)-2′-(2H-tetrazol-5-yl)-[1,1′-biphenyl]-3-yl)-2-(3-fluoro-4-methylphenyl)acetamide]"
11,0.0316,"COc1ccc(CC(=O)Nc2cc(-c3ccccc3-c3nn[nH]n3)ccc2SC(C)(C)C)cc1 [Example 22, N-(4-(tert-butylthio)-2′-(2H-tetrazol-5-yl)-[1,1′-biphenyl]-3-yl)-2-(4-methoxyphenyl)acetamide]"
12,0.0631,"COc1ccc(CC(=O)Nc2cc(-c3ccccc3-c3nn[nH]n3)ccc2SC(C)(C)C)cc1F [Example 23, N-(4-(tert-butylthio)-2′-(2H-tetrazol-5-yl)-[1,1′-biphenyl]-3-yl)-2-(3-fluoro-4-methoxyphenyl)acetamide]"
13,0.398,"CC(C)(C)Sc1ccc(-c2ccccc2-c2nn[nH]n2)cc1NC(=O)Cc1ccc(F)cc1 [Example 24, N-(4-(tert-butylthio)-2′-(2H-tetrazol-5-yl)-[1,1′-biphenyl]-3-yl)-2-(4-fluorophenyl)acetamide]"
14,0.398,"CC(C)(C)Sc1ccc(-c2ccccc2-c2nn[nH]n2)cc1NC(=O)Cc1ccccc1 [Example 25, N-(4-(tert-butylthio)-2′-(2H-tetrazol-5-yl)-[1,1′-biphenyl]-3-yl)-2-phenylacetamide]"
15,0.794,"Cc1ccc(CC(=O)Nc2cc(-c3ccccc3-c3nn[nH]n3)ccc2SC(C)(C)C)nc1 [Example 26, N-(4-(tert-butylthio)-2′-(2H-tetrazol-5-yl)-[1,1′-biphenyl]-3-yl)-2-(5-methylpyridin-2-yl)acetamide]"
